Data as given in US5192756A, “Aminosterol antibiotic” (The Children's Hospital of Pennsylvania, priority 1992, dated 1993).
In brackets after ≈: the same amount, converted by molar mass. Entries after “also recorded” stand apart in the source; their conditions may differ.

Assays:
[1] = Tissue distribution of squalamine in Squalus acanthias
Protocol: The tissue distribution of squalamine was determined by extraction of freshly obtained tissues of Squalus using the same procedure as described in Example 1 for the stomach extraction. Other Squalus acanthias tissues (about 50 g of liver, gallbladder, spleen, testes, gill and intestine) were extracted as above, and purified through the C18 HPLC stage. Antimicrobial activity was detected in each tissue, and one reversed-phasefraction from each tissue was analyzed by FAB mass spectroscopy. The yield from the stomach was determined by spotting several dilutions onto a TLC plate and comparing the ninhydrin staining to a spermidine standard curve. The result agreed with the estimate obtained by NMR spectroscopy when the squalamine signal intensity was compared to that of a standard. An estimate of the yield of squalamine from other tissues was made by comparing the antimicrobial activity of reversed-phase fractions to the activity from the stomach.

E. coli D31 [2] = test: Protease resistance of antimicrobial activity (proteinase K); assay type: in vitro ADME; conditions: proteinase K 2 mg/ml, one hour, 37° C.; E. coli D31 lawn
Protocol: Proteinase K (final concentration 2 mg/ml) was added to 0.2 μg/μl squalamine or 0.8 μg/μl magainin II amide in 1×phosphate-buffered saline. After a one hour incubation at 37° C., 2 μl of each sample was applied to the lawn of E. coli D31.

E. coli = test: Minimal inhibitory concentration, E. coli; assay type: cell-based; conditions: Escherichia coli, ATCC25922; E. coli ATCC 25922; 1/2×TSB, 37° C., 18 to 24 hours
Protocol: (§1) Squalamine was assayed in vitro against several microbial organisms to evaluate its spectrum of activity.
(§2) Minimal inhibitory concentrations for the bacteria and yeast were determined by incubating 0.9-11×10^5 colony-forming units/ml of log-phase organisms in 1/2×tryptica soy broth (TSB) with increasing concentrations of sample in static 96-2311 microtiter plates (Corning, Inc., Corning, N.Y.) at 37° C. for 18 to 24 hours. The minimal inhibitory concentration is the concentration of sample at which no growth was observed. Control incubation in the absence of […] served to set a baseline value.
(§3) Initial sample concentrations were 2 mg/ml in 250 mM sodium acetate pH 6.6, 11.2 mM HCl, except taurolithocholic acid 3-sulfate which was 2 mg/ml in 50 mM sodium acetate, and squalamine to which HCl was not added because it was acidic following the last step of purification. Spermidine HCl, taurolithocholic acid 3-sulfate, melittin, holothurin and ampicillin were purchased from Sigma (St. Louis, Miss.). CHAPS (3-[(3-cholamidopropyl)dimethylammonio]-1-propane sulfonate dihydrate) was purchased from Aldrich (Milwaukee, Wis.). Conessine was purchased from Aldrich Rare Chemicals Division (Milwaukee, Wis.). Magainin-II amide and CPF-amide were made by Magainin Pharmaceuticals, Inc. (Plymouth Meeting, Penn.). The CPF peptide used in the assay has the sequence […]-NH2. (Richter, K., et al., J. Biol. Chem. 261, 3676-3680 (1986).

Staph. aureus = test: Minimal inhibitory concentration, Staph. aureus; assay type: cell-based; conditions: Staphylococcus aureus, ATCC29213; Staph. aureus ATCC 29213; 1/2×TSB, 37° C., 18 to 24 hours
Protocol: as §1, §2, §3

Serratia marcescens = test: Minimal inhibitory concentration, Serratia marcescens; assay type: cell-based; conditions: ATCC8100; Serratia marcescens ATCC 8100; 1/2×TSB, 37° C., 18 to 24 hours
Protocol: as §1, §2, §3

Paramecium caudatum = test: Minimal disruptive concentration, Paramecium caudatum; assay type: cell-based; conditions: 1% trypticase soy broth, light microscopy for ten minutes, read-out: Minimal Inhibitory Concentration (minimal disruptive concentration for the protozoa)
Protocol: as §1, §3
(§4) Minimal disruptive concentration (the concentration at which physical disruption of the protozoa occurred) was determined for the protozoa by adding […] of sample (in sodium acetate as above) to […] of 1% trypticase soy broth containing P. caudatum (Nasco, Fort Atkinson, Wiss,). Organisms were observed by light microscopy for ten minutes.

Candida albicans = test: Minimal inhibitory concentration, Candida albicans; assay type: cell-based; conditions: ATCC14053; Candida albicans ATCC 14053; 1/2×TSB, 37° C., 18 to 24 hours
Protocol: as §1, §2, §3

human erythrocytes = test: Hemolytic activity against human erythrocytes; assay type: cell-based
Protocol: Because of its structural resemblance to steroidal detergents, squalamine was assayed for its hemolytic activity against human erythrocytes.
Each sample was diluted in H2 O and was added to a 10% (vol/vol) suspension of human erythrocytes in phosphate buffered saline (PBS). Erythrocytes were collected with heparin and washed once in 1×PBS before the assay. Samples were incubated at 37° C. for ten minutes, centrifuged at 12,000× g for one minute, and the OD350 of the supernatant was measured. Addition of Triton X-100 (final concentration 0.1%) defined 100% hemolysis.

[3] = system: several microbial organisms; test: In vitro antimicrobial spectrum (bacteria, fungi, protozoa), in words; assay type: cell-based
Protocol: as §1, §2, §3, §4

Proteus vulgaris = test: Minimal inhibitory concentration, Proteus vulgaris; assay type: cell-based; conditions: ATCC13315; Proteus vulgaris ATCC 13315; 1/2×TSB, 37° C., 18 to 24 hours
Protocol: as §1, §2, §3

E. coli D31 [4] = test: Heat resistance of antimicrobial activity (boiling); assay type: physicochemical; conditions: 0.2 μg/ml in 1×phosphate buffered saline, boiled fifteen minutes, E. coli D31 lawn
Protocol: Squalamine at 0.2 μg/ml in 1×phosphate buffered saline was boiled for fifteen minutes. A 2 μl aliquot of the sample before and after boiling was applied to a lawn of E. coli D31.

Pseudomonas aeruginosa = test: Minimal inhibitory concentration, Pseudomonas aeruginosa; assay type: cell-based; conditions: ATCC27853; Pseudomonas aeruginosa ATCC 27853; 1/2×TSB, 37° C., 18 to 24 hours
Protocol: as §1, §2, §3

Strep. faecalis = test: Minimal inhibitory concentration, Strep. faecalis; assay type: cell-based; conditions: Enterococcus faecalis, ATCC29212; Strep. faecalis ATCC 29212; 1/2×TSB, 37° C., 18 to 24 hours
Protocol: as §1, §2, §3

## CC(C)C(CC[C@@H](C)[C@H]1CC[C@H]2[C@@H]3[C@H](O)C[C@H]4C[C@@H](NCCCNCCCCN)CC[C@]4(C)[C@H]3CC[C@]12C)OS(=O)(=O)O (stereo partly drawn) [Squalamine, 3β(N-[3-aminopropyl]-1,4-butanediamine)-7α,24.zeta.-dihydroxy-5α-cholestane 24-sulfate]
[1]; gills
  squalamine content of tissue: 0.5 μg/gm
[1]; intestine
  squalamine content of tissue: 0.02 μg/gm
[1]; liver and gall bladder
  squalamine content of tissue: 4-7 μg/gm
[1]; spleen
  squalamine content of tissue: about 2 μg/gm
[1]; stomach
  squalamine content of tissue: 1 μg/gm
[1]; testes
  squalamine content of tissue: about 2 μg/gm
E. coli D31 [2]
  antimicrobial activity after proteinase K digestion: retained its activity; also recorded: resistant to boiling and protease treatment
E. coli
  MIC: 1 to 2 µg/mL (≈ 1.59 to 3.18 µM)
Staph. aureus
  MIC: 1 to 2 µg/mL (≈ 1.59 to 3.18 µM)
Serratia marcescens
  MIC: > 125 µg/mL
Paramecium caudatum
  MIC: 4 to 8 µg/mL (≈ 6.37 to 12.7 µM)
Candida albicans
  MIC: 4 to 8 µg/mL (≈ 6.37 to 12.7 µM)
Human erythrocytes; FIG. 3, 37° C., ten minutes
  hemolytic activity (in words): exhibits some hemolytic activity, it occurs at higher concentrations than observed for a non-selective membrane disruptive amphipathic peptide, such as mellitin
Human erythrocytes; antibiotic activity compared with erythrocyte disruption
  antibiotic versus hemolytic concentration / selectivity (in words): exerts antibiotic activity at concentrations below which erythrocyte disruption is observed
[3]; bacteria of Table I
  antibacterial activity (in words): compares in antibacterial potency to ampicillin
[3]; bacteria, fungi, protozoa, concentration range studied
  antibiotic activity (in words): broad range of potent antibiotic activity against a plurality of microorganisms including gram-positive and gram-negative bacteria, fungi, protozoa and the like; also recorded: somewhat more potent than the Xenopus antimicrobial peptides
Proteus vulgaris
  MIC: 4 to 8 µg/mL (≈ 6.37 to 12.7 µM)
E. coli D31 [4]
  antimicrobial activity after boiling: retained its antimicrobial activity after boiling
E. coli D31 [4]; listed as squalamine
  antimicrobial activity after boiling: resistant to boiling and protease treatment
Pseudomonas aeruginosa
  MIC: 4 to 8 µg/mL (≈ 6.37 to 12.7 µM)
Strep. faecalis
  MIC: 1 to 2 µg/mL (≈ 1.59 to 3.18 µM)
